{"source": "patent US7585895B2", "about": "“Therapeutic substituted cyclopentanes” (Allergan, Inc., priority 2005, dated 2009)", "data": [{"biological_target": "T1, hIP (Homo sapiens, UniProt P43119)", "T1 construct": "expressed in transfected cells", "T1 sequence (P43119 whole entry)": "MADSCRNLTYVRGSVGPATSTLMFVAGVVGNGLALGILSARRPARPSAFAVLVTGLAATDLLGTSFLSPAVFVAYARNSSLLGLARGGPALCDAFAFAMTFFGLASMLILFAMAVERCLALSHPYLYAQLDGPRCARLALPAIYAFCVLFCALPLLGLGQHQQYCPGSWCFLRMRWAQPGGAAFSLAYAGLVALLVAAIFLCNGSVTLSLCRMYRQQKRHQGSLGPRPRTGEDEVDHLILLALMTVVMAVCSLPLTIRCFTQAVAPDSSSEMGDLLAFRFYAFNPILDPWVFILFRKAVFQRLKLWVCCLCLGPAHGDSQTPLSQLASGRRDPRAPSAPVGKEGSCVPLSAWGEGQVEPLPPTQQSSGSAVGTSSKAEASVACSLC", "assay": "FLIPR calcium signal, IP", "type": "cell-based", "settings": "HEK-293(EBNA)", "protocol": "(§1) HEK-293(EBNA) cells, stably expressing one type or subtype of recombinant human prostaglandin receptors (prostaglandin receptors expressed: hDP/Gqs5; hEP1; hEP2/Gqs5; hEP3A/Gqi5; hEP4/Gqs5; hFP; hIP; hTP), were cultured in 100 mm culture dishes in high-glucose DMEM medium containing 10% fetal bovine serum, 2 mM 1-glutamine, 250 μg/ml geneticin (G418) and 200 μg/ml hygromycin B as selection markers, and 100 units/ml penicillin G, 100 μg/ml streptomycin and 0.25 μg/ml amphotericin B.\n(§2) Cells were seeded at a density of 5×10^4 cells per well in Biocoat® Poly-D-lysine-coated black-wall, clear-bottom 96-well plates (Becton-Dickinson) and allowed to attach overnight in an incubator at 37° C. Cells were then washed two times with HBSS-HEPES buffer (Hanks Balanced Salt Solution without bicarbonate and phenol red, 20 mM HEPES, pH 7.4) using a Denley Cellwash plate washer (Labsystems). After 45 minutes of dye-loading in the dark, using the calcium-sensitive dye Fluo-4 AM at a final concentration of 2 μM, plates were washed four times with HBSS-HEPES buffer to remove excess dye leaving 100 μl in each well. Plates were re-equilibrated to 37° C. for a few minutes.\n(§3) Cells were excited with an Argon laser at 488 nm, and emission was measured through a 510-570 nm bandwidth emission filter (FLIPR™, Molecular Devices, Sunnyvale, Calif.). Drug solution was added in a 50 μl volume to each well to give the desired final concentration. The peak increase in fluorescence intensity was recorded for each well. On each plate, four wells each served as negative (HBSS-HEPES buffer) and positive controls (standard agonists: BW245C (hDP); PGE2 (HEP1; hEP2/Gqs5; hEP3A/Gqi5; hEP4/Gqs5); PGF2α (hFP); carbacyclin (hIP); U-46619 (hTP), depending on receptor). The peak fluorescence change in each drug-containing well was then expressed relative to the controls.\n(§4) Compounds were tested in a high-throughput (HTS) or concentration-response (CoRe) format. In the HTS format, forty-four compounds per plate were examined in duplicates at a concentration of 10^−5 M. To generate concentration-response curves, four compounds per plate were tested in duplicates in a concentration range between 10^−5 and 10^−11 M. The duplicate values were averaged. In either, HTS or CoRe format each compound was tested on at least 3 separate plates using cells from different passages to give an n≧3.", "values": [{"smiles": "CCCCCC(O)c1ccc([C@@H]2[C@@H](C/C=C\\CCCC(=O)O)[C@H](Cl)C[C@H]2O)cc1", "note": "(mixture of isomers) [Entry 11, (Z)-7-{(1R,2S,3R,5R)-5-Chloro-3-hydroxy-2-[4-(1-hydroxy-hexyl)-phenyl]-cyclopentyl}-hept-5-enoic acid]", "Ca2+ Signal-EC50 (nM) IP": "not active"}, {"smiles": "O=C(O)CCC/C=C\\C[C@@H]1[C@@H](c2ccc(C(O)CC3CCCCC3)cc2)[C@H](O)C[C@H]1Cl", "note": "(mixture of isomers) [Entry 17, (Z)-7-{(1R,2S,3R,5R)-5-Chloro-2-[4-(2-cyclohexyl-1-hydroxy-ethyl)-phenyl]-3-hydroxy-cyclopentyl}-hept-5-enoic acid]", "Ca2+ Signal-EC50 (nM) IP": "not active"}, {"smiles": "CC(C)(C)CCCC(O)c1ccc([C@@H]2[C@@H](CCCCCCC(=O)O)[C@H](Cl)C[C@H]2O)cc1", "note": "(mixture of isomers) [Entry 20, 7-{(1R,2S,3R,5R)-5-Chloro-3-hydroxy-2-[4-(1-hydroxy-5,5-dimethyl-hexyl)-phenyl]-cyclopentyl}-heptanoic acid]", "Ca2+ Signal-EC50 (nM) IP": "not active"}, {"smiles": "O=C(O)CCC/C=C\\C[C@@H]1[C@@H](c2ccc(C(O)Cc3ccccc3)cc2)[C@H](O)C[C@H]1Cl", "note": "(mixture of isomers) [Entry 21, (Z)-7-{(1R,2S,3R,5R)-5-Chloro-3-hydroxy-2-[4-(1-hydroxy-2-phenyl-ethyl)-phenyl]-cyclopentyl}-hept-5-enoic acid]", "Ca2+ Signal-EC50 (nM) IP": "not active"}, {"smiles": "CCCCC(O)c1ccc([C@@H]2[C@@H](C/C=C\\CCCC(=O)O)[C@H](Cl)C[C@H]2O)cc1", "note": "(mixture of isomers) [Entry 27, (Z)-7-{(1R,2S,3R,5R)-5-Chloro-3-hydroxy-2-[4-(1-hydroxy-pentyl)-phenyl]-cyclopentyl}-hept-5-enoic acid]", "Ca2+ Signal-EC50 (nM) IP": "not active"}, {"smiles": "CCCCC(O)C(C)(C)c1ccc([C@@H]2[C@@H](C/C=C\\CCCC(=O)O)[C@H](Cl)C[C@H]2O)cc1", "note": "(mixture of isomers) [Entry 32, (Z)-7-{(1R,2S,3R,5R)-5-Chloro-3-hydroxy-2-[4-(2-hydroxy-1,1-dimethyl-hexyl)-phenyl]-cyclopentyl}-hept-5-enoic acid]", "Ca2+ Signal-EC50 (nM) IP": "not active"}, {"smiles": "CCCCCC(O)c1ccc([C@@H]2[C@@H](C/C=C\\CCCC(=O)O)[C@H](Cl)C[C@H]2O)cc1", "note": "(single isomer, unassigned) [Entry 12]", "Ca2+ Signal-EC50 (nM) IP": "not active"}, {"smiles": "CCCCCC(O)c1ccc([C@@H]2[C@@H](C/C=C\\CCCC(=O)O)[C@H](Cl)C[C@H]2O)cc1", "note": "(single isomer, unassigned) [Entry 13]", "Ca2+ Signal-EC50 (nM) IP": "not active"}, {"smiles": "CCCCCC(O)c1ccc([C@@H]2[C@@H](CCCc3ccc(C(=O)O)s3)[C@H](Cl)C[C@H]2O)cc1", "note": "(stereo partly drawn) [Entry 2, 5-(3-{(1R,2S,3R,5R)-5-Chloro-3-hydroxy-2-[4-(1-hydroxy-hexyl)-phenyl]-cyclopentyl}-propyl)-thiophene-2-carboxylic acid]", "Ca2+ Signal-EC50 (nM) IP": "not active"}, {"smiles": "CCCCCC(O)c1ccc([C@@H]2[C@@H](Cc3cccc(CCC(=O)O)c3)[C@H](Cl)C[C@H]2O)cc1", "note": "(stereo partly drawn) [Entry 3, 3-(3-{(1R,2S,3R,5R)-5-Chloro-3-hydroxy-2-[4-(1-hydroxy-hexyl)-phenyl]-cyclopentylmethyl}-phenyl)-propionic acid]", "Ca2+ Signal-EC50 (nM) IP": "not active"}, {"smiles": "CCCC1(C(O)c2cccc([C@@H]3[C@@H](Cc4cccc(CCC(=O)O)c4)[C@H](Cl)C[C@H]3O)c2)CCC1", "note": "(stereo partly drawn) [Entry 4, 3-[3-((1R,2S,3R,5R)-5-Chloro-3-hydroxy-2-{3-[hydroxy-(1-propyl-cyclobutyl)-methyl]-phenyl}-cyclopentylmethyl)-phenyl]-propionic acid]", "Ca2+ Signal-EC50 (nM) IP": "not active"}, {"smiles": "CCCCCC(O)c1ccc([C@@H]2[C@@H](CCCc3ncc(C(=O)O)s3)[C@H](Cl)C[C@H]2O)cc1", "note": "(stereo partly drawn) [Entry 5, 2-(3-{(1R,2S,3R,5R)-5-Chloro-3-hydroxy-2-[4-(1-hydroxy-hexyl)-phenyl]-cyclopentyl}-propyl)-thiazole-5-carboxylic acid]", "Ca2+ Signal-EC50 (nM) IP": "not active"}, {"smiles": "CCCCCC(O)c1ccc([C@@H]2[C@@H](CCCCCCC(=O)O)[C@H](Cl)C[C@H]2O)cc1", "note": "(stereo partly drawn) [Entry 14, 7-{(1R,2S,3R,5R)-5-Chloro-3-hydroxy-2-[4-(1-hydroxy-hexyl)-phenyl]-cyclopentyl}-heptanoic acid]", "Ca2+ Signal-EC50 (nM) IP": "not active"}, {"smiles": "O=C(O)CCC/C=C\\C[C@@H]1[C@@H](c2ccc(C(O)CCC3CCCCC3)cc2)[C@H](O)C[C@H]1Cl", "note": "(stereo partly drawn) [Entry 15, (Z)-7-{(1R,2S,3R,5R)-5-Chloro-2-[4-(3-cyclohexyl-1-hydroxy-propyl)-phenyl]-3-hydroxy-cyclopentyl}-hept-5-enoic acid]", "Ca2+ Signal-EC50 (nM) IP": "not active"}, {"smiles": "O=C(O)CCCCCC[C@@H]1[C@@H](c2ccc(C(O)CCC3CCCCC3)cc2)[C@H](O)C[C@H]1Cl", "note": "(stereo partly drawn) [Entry 16, 7-{(1R,2S,3R,5R)-5-Chloro-2-[4-(3-cyclohexyl-1-hydroxy-propyl)-phenyl]-3-hydroxy-cyclopentyl}-heptanoic acid]", "Ca2+ Signal-EC50 (nM) IP": "not active"}, {"smiles": "O=C(O)CCCCCC[C@@H]1[C@@H](c2ccc(C(O)CC3CCCCC3)cc2)[C@H](O)C[C@H]1Cl", "note": "(stereo partly drawn) [Entry 18, 7-{(1R,2S,3R,5R)-5-Chloro-2-[4-(2-cyclohexyl-1-hydroxy-ethyl)-phenyl]-3-hydroxy-cyclopentyl}-heptanoic acid]", "Ca2+ Signal-EC50 (nM) IP": "not active"}, {"smiles": "O=C(O)CCCCCC[C@@H]1[C@@H](c2ccc(C(O)Cc3ccccc3)cc2)[C@H](O)C[C@H]1Cl", "note": "(stereo partly drawn) [Entry 22, 7-{(1 R,2S,3R,5R)-5-Chloro-3-hydroxy-2-[4-(1-hydroxy-2-phenyl-ethyl)-phenyl]-cyclopentyl}-heptanoic acid]", "Ca2+ Signal-EC50 (nM) IP": "not active"}, {"smiles": "O=C(O)CCC/C=C\\C[C@@H]1[C@@H](c2ccc(C(O)CCc3ccccc3)cc2)[C@H](O)C[C@H]1Cl", "note": "(stereo partly drawn) [Entry 23, (Z)-7-{(1R,2S,3R,5R)-5-Chloro-3-hydroxy-2-[4-(1-hydroxy-3-phenyl-propyl)-phenyl]-cyclopentyl}-hept-5-enoic acid]", "Ca2+ Signal-EC50 (nM) IP": "not active"}, {"smiles": "O=C(O)CCCCCC[C@@H]1[C@@H](c2ccc(C(O)CCc3ccccc3)cc2)[C@H](O)C[C@H]1Cl", "note": "(stereo partly drawn) [Entry 24, 7-{(1R,2S,3R,5R)-5-Chloro-3-hydroxy-2-[4-(1-hydroxy-3-phenyl-propyl)-phenyl]-cyclopentyl}-heptanoic acid]", "Ca2+ Signal-EC50 (nM) IP": "not active"}, {"smiles": "CCCCCCC(O)c1ccc([C@@H]2[C@@H](C/C=C\\CCCC(=O)O)[C@H](Cl)C[C@H]2O)cc1", "note": "(stereo partly drawn) [Entry 25, (Z)-7-{(1R,2S,3R,5R)-5-Chloro-3-hydroxy-2-[4-(1-hydroxy-heptyl)-phenyl]-cyclopentyl}-hept-5-enoic acid]", "Ca2+ Signal-EC50 (nM) IP": "not active"}, {"smiles": "CCCC(O)c1ccc([C@@H]2[C@@H](C/C=C\\CCCC(=O)O)[C@H](Cl)C[C@H]2O)cc1", "note": "(stereo partly drawn) [Entry 26, (Z)-7-{(1R,2S,3R,5R)-5-Chloro-3-hydroxy-2-[4-(1-hydroxy-butyl)-phenyl]-cyclopentyl}-hept-5-enoic acid]", "Ca2+ Signal-EC50 (nM) IP": "not active"}]}, {"biological_target": "T1, hIP", "assay": "FLIPR calcium signal, IP", "type": "cell-based", "settings": "HEK-293(EBNA), read-out: Ca2+ Signal-EC50 (nM) IP", "protocol": "as §1, §2, §3, §4", "units": {"EC50": "nM"}, "values": [{"smiles": "CCCCCC(O)c1ccc([C@@H]2[C@@H](C/C=C\\CCCC(=O)O)[C@H](F)C[C@H]2O)cc1", "note": "(mixture of isomers) [Entry 8, (Z)-7-{(1R,2S,3R,5R)-5-Fluoro-3-hydroxy-2-[4-(1-hydroxy-hexyl)-phenyl]-cyclopentyl}-hept-5-enoic acid]", "EC50": 10100}, {"smiles": "CCCCCC(O)c1ccc([C@@H]2[C@@H](C/C=C\\CCCC(=O)O)[C@@H](Cl)C[C@H]2O)cc1", "note": "(stereo partly drawn) [Entry 9, (Z)-7-{(1R,2S,3R,5S)-5-Chloro-3-hydroxy-2-[4-(1-hydroxy-hexyl)-phenyl]-cyclopentyl}-hept-5-enoic acid]", "EC50": 6880}, {"smiles": "O=C(O)CCC/C=C\\C[C@@H]1[C@@H](c2ccc(C(O)c3ccccc3)cc2)[C@H](O)C[C@H]1Cl", "note": "(stereo partly drawn) [Entry 28, (Z)-7-{(1R,2S,3R,5R)-5-Chloro-3-hydroxy-2-[4-(hydroxy-phenyl-methyl)-phenyl]-cyclopentyl}-hept-5-enoic acid]", "EC50": 1650}, {"smiles": "CCCCCC(O)c1cccc([C@@H]2[C@@H](C/C=C\\CCCC(=O)O)[C@H](Cl)C[C@H]2O)c1", "note": "(stereo partly drawn) [Entry 29, (Z)-7-{(1R,2S,3R,5R)-5-Chloro-3-hydroxy-2-[3-(1-hydroxy-hexyl)-phenyl]-cyclopentyl}-hept-5-enoic acid]", "EC50": 8490}, {"smiles": "CCCCC(O)c1cccc([C@@H]2[C@@H](C/C=C\\CCCC(=O)O)[C@H](Cl)C[C@H]2O)c1", "note": "(stereo partly drawn) [Entry 30, (Z)-7-{(1R,2S,3R,5R)-5-Chloro-3-hydroxy-2-[3-(1-hydroxy-pentyl)-phenyl]-cyclopentyl}-hept-5-enoic acid]", "EC50": 2060}]}]}
